# Assay results reported in patent US8642256B2, “Kinase and ubiquination assays” (Life Technologies Corporation, priority 2005, dated 2014).
# Several values for one entry are separate records, joined by “and”; a condition that tells them apart may be missing. Equal entries are not always repeated.
# Assays:
# [1] = biological target: T1, Epidermal Growth Factor Receptor (EGFR) Tyrosine Kinase (Homo sapiens, UniProt P00533); experiment: EGFR kinase multiplex FP/TR-RET assay (LOPAC screen and follow-up); type: biochemical; settings: re-assayed, two-fold dilutions
# T1 construct: purchased Invitrogen P2628
# T1 sequence (P00533 25-1210): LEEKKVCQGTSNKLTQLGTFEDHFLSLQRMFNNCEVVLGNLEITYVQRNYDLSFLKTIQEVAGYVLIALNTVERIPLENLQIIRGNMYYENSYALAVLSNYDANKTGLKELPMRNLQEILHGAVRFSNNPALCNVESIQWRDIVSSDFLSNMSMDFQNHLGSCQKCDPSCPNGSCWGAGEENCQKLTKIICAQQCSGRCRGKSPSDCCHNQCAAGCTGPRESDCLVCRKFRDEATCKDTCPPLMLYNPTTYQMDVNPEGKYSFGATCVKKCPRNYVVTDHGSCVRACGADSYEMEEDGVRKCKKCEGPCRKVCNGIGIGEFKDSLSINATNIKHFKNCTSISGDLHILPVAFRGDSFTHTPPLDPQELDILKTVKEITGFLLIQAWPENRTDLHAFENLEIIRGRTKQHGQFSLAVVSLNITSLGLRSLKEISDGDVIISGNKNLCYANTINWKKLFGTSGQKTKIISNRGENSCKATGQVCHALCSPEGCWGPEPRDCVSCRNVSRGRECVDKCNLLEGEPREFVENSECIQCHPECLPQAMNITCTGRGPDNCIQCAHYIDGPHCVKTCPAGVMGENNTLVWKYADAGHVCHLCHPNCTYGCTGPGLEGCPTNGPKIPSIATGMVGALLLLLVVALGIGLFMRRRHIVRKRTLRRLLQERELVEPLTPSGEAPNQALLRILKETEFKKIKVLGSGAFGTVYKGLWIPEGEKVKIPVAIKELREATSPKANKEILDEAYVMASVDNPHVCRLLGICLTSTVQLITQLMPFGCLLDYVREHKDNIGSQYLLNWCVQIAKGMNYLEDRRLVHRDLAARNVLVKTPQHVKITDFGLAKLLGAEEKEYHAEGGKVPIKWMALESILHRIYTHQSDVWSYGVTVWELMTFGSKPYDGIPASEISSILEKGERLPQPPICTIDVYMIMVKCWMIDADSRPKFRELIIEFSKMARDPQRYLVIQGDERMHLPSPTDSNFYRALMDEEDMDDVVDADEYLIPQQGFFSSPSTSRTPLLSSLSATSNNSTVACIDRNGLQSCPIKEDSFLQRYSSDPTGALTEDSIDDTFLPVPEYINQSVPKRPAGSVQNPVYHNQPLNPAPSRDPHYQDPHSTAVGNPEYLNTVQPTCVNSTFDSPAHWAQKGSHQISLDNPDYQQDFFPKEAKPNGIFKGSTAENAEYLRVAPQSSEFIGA
# [2] = Precipitation of compounds seen in the EGFR kinase assay; type: physicochemical; settings: EGFR kinase assay conditions
# RAW 264.7 cells = experiment: Assay of kinase from cell lysate (GFP-cJun phosphorylation, TR-FRET); type: cell-based, mouse; settings: duplicates
# Experimental: RAW 264.7 cells (mouse macrophage cell line) were serum starved overnight and stimulated (or not) with 10 ug/ml of Anisomycin for 15 minutes prior to lysates being prepared. Lysates were prepared following a standard protocol, e.g., as described in the Kinase Activity Assay Kit protocol, Rev. A1 Dec. 9, 2005, Catalog#KNZ0031, BioSource (California). The protocol is outlined below.
# When using the Omnia™ Lysate Assay to determine MAPKAP-K2 activity in cell lysates, the following procedure for sample preparation may be used. This protocol has been successfully applied to several cell lines of human and mouse origin. • 1. Thaw Omnia Cell Extraction Buffer (BioSource, California) on ice. • 2. Set up and stimulate cells as desired. • 3. Collect cells in cold PBS by centrifugation (for non-adherent cells) or scraping from culture plates (for adherent cells). • 4. Centrifuge the cells at 1,500 rpm for 5 minutes at 4° C. • 5. Aspirate the PBS. • 6. Resuspend the cell pellet in Omnia Cell Extraction Buffer and transfer the lysate to a 1.5 mL microcentrifuge tube. The volume of Omnia Cell Extraction Buffer depends on the cell number and expression level of MAPKAP-K2. The optimal protein concentration of lysate should be in the range of 5 to 10 mg/mL. Add an appropriate amount of protease and phosphatase inhibitor (typically provided as a 100× stock solution) before using. Under these conditions, using 0.005 mL (25-50 μg) of the clarified cell extract will be sufficient for measurement of MAPKAP-K2 activity. • 7. Lyse the cells at 4° C. for 30 minutes on a rotator. Whole cell extract can then be briefly sonicated or put through a syringe and needle if desired. • 8. Centrifuge at 13,000 rpm for 20-30 minutes at 4° C. • 9. Transfer the clarified cell extracts to clean microcentrifuge tubes. • 10. The clarified cell extract should be stored at −80° C. until ready for analysis. Avoid repeated freeze-thaw cycles. In preparation for performing the assay, allow the samples to thaw on ice. Mix well prior to analysis.
# Lysate was serially diluted in buffer and 5 uL aliquots were assayed against 400 nM GFP-cJun in assay buffer containing 100 uM ATP. Assays were stopped by addition of EDTA and antibody, with a final anti-phospho cJun antibody concentration of 2 nM. The plate was read after 1 hour incubation and the data collected. Samples were performed in duplicates.
# UCH-L3 = biological target: T2, UCH-L3 (Homo sapiens, UniProt P15374); experiment: Deubiquitination TR-FRET assay with GFP-Ub-Tb, inhibitor titration; type: biochemical; settings: 0.1 nM UCH-L3 and 10 nM GFP-Ub-Tb
# T2 construct: purchased Boston Biochem E-325
# T2 sequence (P15374 1-230): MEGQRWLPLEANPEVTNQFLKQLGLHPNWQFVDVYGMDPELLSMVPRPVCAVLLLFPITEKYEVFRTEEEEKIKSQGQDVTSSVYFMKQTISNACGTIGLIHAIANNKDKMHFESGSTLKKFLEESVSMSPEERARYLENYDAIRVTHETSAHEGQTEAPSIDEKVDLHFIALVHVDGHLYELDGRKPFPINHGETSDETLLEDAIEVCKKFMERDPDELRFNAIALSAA
compound,measurement,setting,value
Oc1ccccc1O [Pyrocatechol],inhibitor on re-assay,[1],neither was seen to be an inhibitor
O=C1Nc2ccc(I)cc2/C1=C/c1cc(Br)c(O)c(Br)c1 [GW5074],precipitation in the assay,[2],seen to precipitate
NC(=O)c1cc(N2CC2)c([N+](=O)[O-])cc1[N+](=O)[O-] [CB-1954],inhibitor on re-assay,[1],neither was seen to be an inhibitor
COc1ccc(C[C@H]2NC[C@H](O)[C@H]2OC(C)=O)cc1 [Anisomycin],"TR-FRET value of lysate, +Anisomycin","RAW 264.7 cells; 10 ug/ml Anisomycin 15 minutes, 0.003051758 % Cell Lysate in 5 uL Addition",0.1308 and 0.1312
same,"TR-FRET value of lysate, +Anisomycin","RAW 264.7 cells; 10 ug/ml Anisomycin 15 minutes, 0.006103516 % Cell Lysate in 5 uL Addition",0.1395 and 0.1339
same,"TR-FRET value of lysate, +Anisomycin","RAW 264.7 cells; 10 ug/ml Anisomycin 15 minutes, 0.01220703 % Cell Lysate in 5 uL Addition",0.1419 and 0.1424
same,"TR-FRET value of lysate, +Anisomycin","RAW 264.7 cells; 10 ug/ml Anisomycin 15 minutes, 0.02441406 % Cell Lysate in 5 uL Addition",0.1479 and 0.1534
same,"TR-FRET value of lysate, +Anisomycin","RAW 264.7 cells; 10 ug/ml Anisomycin 15 minutes, 0.04882813 % Cell Lysate in 5 uL Addition",0.1572 and 0.1894
same,"TR-FRET value of lysate, +Anisomycin","RAW 264.7 cells; 10 ug/ml Anisomycin 15 minutes, 0.09765625 % Cell Lysate in 5 uL Addition",0.2161 and 0.2286
same,"TR-FRET value of lysate, +Anisomycin","RAW 264.7 cells; 10 ug/ml Anisomycin 15 minutes, 0.1953125 % Cell Lysate in 5 uL Addition",0.2474 and 0.3145
same,"TR-FRET value of lysate, +Anisomycin","RAW 264.7 cells; 10 ug/ml Anisomycin 15 minutes, 0.390625 % Cell Lysate in 5 uL Addition",0.2813 and 0.3421
same,"TR-FRET value of lysate, +Anisomycin","RAW 264.7 cells; 10 ug/ml Anisomycin 15 minutes, 0.78125 % Cell Lysate in 5 uL Addition",0.3722 and 0.4739
same,"TR-FRET value of lysate, +Anisomycin","RAW 264.7 cells; 10 ug/ml Anisomycin 15 minutes, 1.5625 % Cell Lysate in 5 uL Addition",0.4554 and 0.5687
same,"TR-FRET value of lysate, +Anisomycin","RAW 264.7 cells; 10 ug/ml Anisomycin 15 minutes, 3.125 % Cell Lysate in 5 uL Addition",0.5703 and 0.707
same,"TR-FRET value of lysate, +Anisomycin","RAW 264.7 cells; 10 ug/ml Anisomycin 15 minutes, 6.25 % Cell Lysate in 5 uL Addition",0.5917 and 0.7878
same,"TR-FRET value of lysate, +Anisomycin","RAW 264.7 cells; 10 ug/ml Anisomycin 15 minutes, 12.5 % Cell Lysate in 5 uL Addition",0.7483 and 0.8384
same,"TR-FRET value of lysate, +Anisomycin","RAW 264.7 cells; 10 ug/ml Anisomycin 15 minutes, 25 % Cell Lysate in 5 uL Addition",0.8474 and 0.8571
same,"TR-FRET value of lysate, +Anisomycin","RAW 264.7 cells; 10 ug/ml Anisomycin 15 minutes, 50 % Cell Lysate in 5 uL Addition",0.9027 and 0.9226
same,"TR-FRET value of lysate, +Anisomycin","RAW 264.7 cells; cells stimulated with 10 ug/ml Anisomycin 15 minutes, 100 % Cell Lysate in 5 uL Addition",0.9796 and 0.9768
CC(C)[C@@]1(NC(=O)[C@@H]2C=C3c4cccc5[nH]cc(c45)C[C@H]3N(C)C2)O[C@@]2(O)[C@@H]3CCCN3C(=O)[C@H](Cc3ccccc3)N2C1=O [Ergocristine],precipitation in the assay,[2],seen to precipitate
ubiquitin aldehyde,IC50,UCH-L3,200 pM
